Laboratory results from ChEMBL document CHEMBL5360530, “Structure activity relationship (SAR) and anticancer activity of pyrrolidine derivatives: Recent developments and future prospects (A review)” (Eur J Med Chem, 2023).
Values after ≈ are worked out from the molar mass of the structure shown. Square brackets hold non-standard residues; d marks the D form. Peptide text beside a SMILES is read from it. * marks the point of attachment. ξ: configuration not given here. X1 = O=C(OC(C(F)(F)F)C(F)(F)F)*; ξP = O=C(O)C1CCCN1

Assays:
[1] = system: A549; test: Anticancer activity against human A549 cells assessed as cell viability at 50 ug/ml measured after 24 hrs by MTT assay relative to control; format: functional; settings: read-out: Activity
[2] = system: A549; test: Anticancer activity against human A549 cells assessed as cell viability measured after 24 hrs by MTT assay; format: functional, cell-based; settings: A549, 24 h
[3] = system: A549; test: Anticancer activity against human A549 cells assessed as cell viability at 100 ug/ml measured after 24 hrs by MTT assay relative to control; format: functional; settings: read-out: Activity
[4] = system: MDA-MB-435; test: Anticancer activity against human MDA-MB-435 cells assessed as cell growth inhibition by SRB assay; format: functional, cell-based
[5] = system: MDA-MB-435; test: Growth inhibition of human MDA-MB-435 cells assessed as cell growth inhibition by SRB assay; format: functional
[6] = system: MCF7; test: Anticancer activity against human MCF7 cells assessed as cell growth inhibition by SRB assay; format: functional, cell-based
[7] = system: SH-SY5Y; test: Anticancer activity against human SH-SY5Y cells assessed as cell death upto 1000 ug/ml measured upto 72 hrs by MTT assay relative to control; format: functional; settings: dose <= 1000 µg/ml, up to 1000 µg/mL
[8] = system: HT-29; test: Anticancer activity against human HT-29 cells assessed as cell death upto 1000 ug/ml measured upto 72 hrs by MTT assay relative to control; format: functional; settings: dose <= 1000 µg/ml, up to 1000 µg/mL
[9] = system: HT-29; test: Anticancer activity against human HT-29 cells assessed as cell growth inhibition measured after 24 hrs by MTT assay; format: functional, cell-based; settings: HT-29, 24 h
[10] = system: MCF7; test: Anticancer activity against human MCF7 cells assessed as cell growth inhibition by MTT assay; format: functional, cell-based
[11] = system: MCF7; test: Anticancer activity against human MCF7 cells assessed as cell growth inhibition measured after 48 hrs by WST-1 assay; format: functional, cell-based; settings: MCF7, 48 h
[12] = system: MCF7; test: Anticancer activity against human MCF7 cells assessed as cell growth inhibition measured after 48 hrs by MTT assay; format: functional, cell-based; settings: MCF7, 48 h
[13] = system: HepG2; test: Anticancer activity against human HepG2 cell assessed as cell growth inhibition; format: functional, cell-based
[14] = system: PC-3; test: Potency index, ratio of cisplatin IC50 to test compound IC50 for anticancer activity against human PC-3 cells; format: functional
[15] = system: PC-3; test: Anticancer activity against human PC-3 cell assessed as cell growth inhibition; format: functional, cell-based
[16] = system: A549; test: Anticancer activity against human A549 cells assessed as cell growth inhibition by MTT assay; format: functional, cell-based
[17] = system: HCT-116; test: Anticancer activity against human HCT-116 cell assessed as cell growth inhibition; format: functional, cell-based
[18] = system: PC-3; test: Anticancer activity against human PC-3 cells assessed as cell growth inhibition measured after 48 hrs by MTT assay; format: functional, cell-based; settings: PC-3, 48 h
[19] = system: HCT-116; test: Potency index, ratio of cisplatin IC50 to test compound IC50 for anticancer activity against human HCT-116 cells; format: functional
[20] = system: HepG2; test: Anticancer activity against human HepG2 cells assessed as cell growth inhibition measured after 48 hrs by MTT assay; format: functional, cell-based; settings: HepG2, 48 h
[21] = system: HCT-116; test: Anticancer activity against human HCT-116 cells assessed as cell growth inhibition measured after 48 hrs by MTT assay; format: functional, cell-based; settings: HCT-116, 48 h
[22] = system: HepG2; test: Potency index, ratio of cisplatin IC50 to test compound IC50 for anticancer activity against human HepG2 cells; format: functional
[23] = system: HeLa; test: Anticancer activity against human HeLa cells assessed as cell growth inhibition measured after 48 hrs by MTT assay; format: functional, cell-based
[24] = system: MDA-MB-231; test: Anticancer activity against human MDA-MB-231 cells assessed as cell growth inhibition measured after 72 hrs by CCK-8 assay; format: functional, cell-based; settings: MDA-MB-231, 72 h
[25] = system: HCT-116; test: Anticancer activity against human HCT-116 cells assessed as cell growth inhibition measured after 72 hrs by CCK-8 assay; format: functional, cell-based; settings: HCT-116, 72 h
[26] = system: A549; test: Anticancer activity against human A549 cells assessed as cell growth inhibition measured after 72 hrs by CCK-8 assay; format: functional, cell-based; settings: A549, 72 h
[27] = system: HT-29; test: Anticancer activity against human HT-29 cells xenografted with BALB/c mouse assessed as tumor growth inhibition at 50 mg/kg, po measured twice daily for 20 days relative to control; format: functional; settings: HT-29, 480 h, time 20 day, read-out: TGI
[28] = system: K562; test: Anticancer activity against human K562 cells assessed as cell growth inhibition measured after 48 hrs by MTT assay; format: functional, cell-based; settings: K562, 48 h
[29] = system: HT-29; test: Anticancer activity against human HT-29 cells xenografted with BALB/c mouse assessed as tumor growth inhibition at 50 mg/kg, iv measured twice daily for 20 days relative to control; format: functional; settings: HT-29, 480 h, time 20 day, read-out: TGI
[30] = system: HT-29; test: Anticancer activity against human HT-29 cells assessed as cell growth inhibition measured after 48 hrs by MTT assay; format: functional, cell-based; settings: HT-29, 48 h
[31] = Cytotoxicity against human Chang liver cells assessed as cell growth inhibition measured after 24 hrs by DAPI and propidium iodide staining based assay; format: toxicity
[32] = system: M-HeLa; test: Anticancer activity against human HelaM cells assessed as cell growth inhibition measured after 24 hrs by DAPI and propidium iodide staining based assay; format: functional
[33] = system: M-HeLa; test: Induction of apoptosis in human HelaM cells upto 100 uM measured after 24 hrs relative to control; format: functional; settings: up to 100 µM
[34] = system: A549; test: Anticancer activity against human A549 cells assessed as cell growth inhibition measured after 24 hrs by MTT assay; format: functional, cell-based; settings: A549, 24 h

`O=C1CCC(=O)N1CN(Cc1ccccc1)Cc1ccccc1` gave a viability at 50 µg/mL [1] of 78.8%, an IC50 [2] of 176 µg/mL (≈ 572 µM) and a viability at 100 µg/mL [3] of 72%.

For `N#CC1=C(N)OC2=C(C(=O)CO2)C12C(=O)Nc1ccc(Br)cc12` (stereo unspecified), the IC50 [4] was ≥ 3.6 µM, the GI50 [5] was 1.8 µM and the IC50 [6] was ≥ 53 µM.

`CCn1c2ccccc2c2cc(NC(=O)CCN3CCCC3)ccc21` gave an Activity [7] of 61% and an Activity [8] of 66%.

For `O=c1[nH]cc(F)c(=O)[nH]1` [FLUOROURACIL], the IC50 [9] was 80.6 µM, the IC50 [10] was 45 µM and the IC50 [11] was 78.3 µM. The IC50 [12] was 45 µM.

With `O=C(c1c[nH]c2ccccc12)[C@@H]1[C@@H](c2ccc(Br)cc2)[C@@H]2CSCN2[C@@]12C(=O)Nc1ccccc12` the IC50 [13] was 5.5 µM, the “Ratio IC50” value [14] was >3 and the IC50 [15] was 7 µM.

`N#C[C@@H]1CCCN1C(=O)Cc1noc2ccccc12` showed an IC50 [10] of 2.36 µM and an IC50 [16] of 90.3 µM.

For `N#CC1=C(N)OC2=C(C(=O)CO2)C12C(=O)Nc1ccccc12` (stereo unspecified), the IC50 [4] was ≥ 3.6 µM, the GI50 [5] was 29.9 µM and the IC50 [6] was ≥ 53 µM.

For `O=C(c1c[nH]c2ccccc12)[C@@H]1[C@@H](c2cccc(Br)c2)[C@@H]2CSCN2[C@@]12C(=O)Nc1ccccc12`, the IC50 [13] was 5.5 µM, the “Ratio IC50” value [14] was >2.9 and the IC50 [17] was 9 µM. It also gave an IC50 [15] of 8 µM.

`O=C(c1c[nH]c2ccccc12)[C@@H]1[C@@H](c2cccc(C(F)(F)F)c2)[C@@H]2CSCN2[C@@]12C(=O)Nc1ccccc12` showed an IC50 [13] of 5.5 µM and an IC50 [17] of 7 µM.

In the case of `NC(=O)[C@@H]1CCCN1C(=O)Cc1noc2ccccc12`, the IC50 [10] is reported as 4.39 µM and the IC50 [16] is reported as 4.72 µM.

In the case of `O=C(/C=C/c1ccc(Cl)cc1)[C@H]1[C@H](c2ccc(Cl)cc2)[C@H]2CSCN2[C@]12C(=O)Nc1ccccc12`, the IC50 [18] is reported as ≥ 2.7 µM, the “Ratio IC50” value [14] is reported as 1.8 and the “Ratio IC50” value [19] is reported as 4. For the same compound, the IC50 [20] was 1 µM, the IC50 [21] was 2.5 µM and the “Ratio IC50” value [22] was 2.

For `CC[C@H](C)[C@H](NC(=O)OC(C(F)(F)F)C(F)(F)F)C(=O)N[C@@H](CC(C)C)C(=O)N1CCCC1C(=O)N[C@@H](CC(C)C)C(=O)N[C@H](C(=O)OC)C(C)C` (stereo partly specified) (X1-IL[ξP]LV-OMe), the IC50 [23] was 2.73 µM.

For `CCCCNCC(O)Cn1c2ccc(Cl)cc2c2cc(Cl)ccc21` (stereo unspecified), the IC50 [24] was 7.5 µM, the IC50 [25] was 6.5 µM and the IC50 [26] was 6 µM.

`Cc1ccc(C2CC(c3ccc(F)cc3)=NN2C(=O)CN2C(=O)CCC2=O)cc1` (stereo unspecified) gave an inhibition in vivo at 50 mg/kg [27] of 60%, an IC50 [28] of 47.2 µM and an inhibition in vivo at 50 mg/kg [29] of 66%. The IC50 [30] was 0.92 µM and the IC50 [12] was 0.07 µM.

For `Oc1cc2c(cc1C1CCCCC1)OCO2`, the IC50 at 24 h [31] was > 100 µM, the IC50 [32] was 14.7 µM and the Activity [33] was 25%.

Work on `CCOC(=O)[C@H]1CCCN1C(=O)Cc1noc2ccccc12` yielded an IC50 [16] of 361 µM.

In the case of `N#CC1=C(N)OC2=C(C(=O)CO2)C12C(=O)Nc1ccc(Cl)cc12` (stereo unspecified), the IC50 [4] is reported as ≥ 3.6 µM, the GI50 [5] is reported as 2.1 µM and the IC50 [6] is reported as ≥ 53 µM.

`COc1ccc([C@@H]2[C@H]([N+](=O)[O-])[C@H](Cc3ccc(O)cc3)NC23C(=O)c2cccc4cccc3c24)cc1` (stereo partly specified) showed an IC50 [34] of 96.5 µM.
